Data taken from patent US20120088896A1, “DRUG FOR INHIBITING LECTIN-LIKE OXIDIZED LDL RECEPTOR AND DRUG FOR PREVENTING ARTERIOSCLEROSIS” (NATIONAL CEREBRAL AND CARDIOVASCULAR CENTER, priority 2009, published 2012).

Key:
[1] = molecular target: T1, TetOn hLOX-1 CHO cells (human LOX-1) (Homo sapiens, UniProt P78380); assay: Binding of DiI-labeled oxidized LDL to LOX-1 expressing cells under low temperature conditions; format: cell-based; conditions: trimeric procyanidins of different structure at 0.1 μg/ml, on ice; Example 5
T1 construct: expressed in transfected cells
Experimental: It is said that caveola or clathrin is also involved in the incorporation of oxidized LDL into the cells, in addition to that mediated by LOX-1.
First, 100 μl of the suspension of LOX-1 expressing cells adjusted with the above culture medium so as to achieve a density of 1×10^5 cells/ml was dispensed into each well of a 96-well plate (manufactured by Costar, Product Number: 3603). In addition, in order to induce the expression of LOX-1, doxycycline (manufactured by Calbiochem) was added so that the final concentration thereof was 1 μg/ml. As a control, a well where no doxycycline was added so that no expression was induced was also prepared. This 96-well plate was incubated at 37° C. for 24 hours in a CO2 incubator, and each well was then washed with the aforementioned FBS(−) medium cooled to 4° C. […]
This 96-well plate was observed using the In Cell Analyzer 1000 system (manufactured by GE healthcare) to measure the DiI fluorescence intensity and the number of nuclei per each well, and the fluorescence intensity per single cell was determined in the same manner as in Example 2.
Further, the oxidized LDL binding rate (%) was calculated by the following formula (3). […]
Subsequently, the effects of these four types of trimeric procyanidins on the inhibition of the bonding between LOX-1 and oxidized LDL were evaluated. […]

ex-hLOX-1 protein = molecular target: T2, ex-hLOX-1 protein (Homo sapiens, UniProt P78380); assay: BIACORE measurement of direct bonding of procyanidins and LOX-1; conditions: monomers to heptamers at 20 μM; peak 3 trimers at 1.25-20 μM; 120 s binding, 120 s dissociation; read-out: Dissociation Constant
T2 construct: IgK secretion signal (printed 'IgK selection signal') (N, cleaved yes); His tag (from vector pSecTag/FRT/V5His); made in house; host or cells: 293F cells (FreeStyle 293 Expression System)
Experimental: The direct bonding of procyanidins and LOX-1 was evaluated using the BIACORE system.
LOX-1 was fixed on a sensor chip, and the BIACORE measurement was carried out using the procyanidins as the liquid phase. The BIACORE measurements and analyses were conducted using the BIACORE 2000 (GE Healthcare). In addition, the sensor chip CM5 was used as a sensor chip, and the ex-hLOX-1 protein was immobilized on the sensor chip by employing the amine coupling method. A HEPES solution (consisted of 10 mM HEPES, 150 mM NaCl and 2 mM CaCl2) was degassed and used as the running buffer.
Among the procyanidins made to flow through the chip, monomeric to heptameric procyanidins were each adjusted to 20 μM using the running buffer and used for the measurement.
In addition, when the procyanidins were reacted in the sensor chip, the flow rate was set to 20 μl/min, and the dissociation constant was measured with 120 seconds of binding and 120 seconds of dissociation.

Row | Kd (ex-hLOX-1 protein) [µM] | Compound | oxidized LDL binding rate (LOX-1 inhibiting activity) [1]
1 | 3.8 | Oc1cc(O)c2c(c1)O[C@H](c1ccc(O)c(O)c1)[C@H](O)[C@H]2c1c(O)cc2c(c1O)C(c1c(O)cc(O)c3c1O[C@H](c1ccc(O)c(O)c1)[C@H](O)C3)[C@@H](O)[C@@H](c1ccc(O)c(O)c1)O2 (single isomer, unassigned; peak 3) [peak 3, epi (4β → 6) epi (4β → 8) epi] | exhibited stronger LOX-1 inhibiting activities than the trimeric procyanidins represented by peaks 1 and 4
2 | – | Oc1cc(O)c2c(c1)O[C@H](c1ccc(O)c(O)c1)[C@H](O)[C@H]2c1c(O)cc2c(c1O)[C@H](c1c(O)cc(O)c3c1O[C@H](c1ccc(O)c(O)c1)[C@@H](O)C3)[C@@H](O)[C@@H](c1ccc(O)c(O)c1)O2 (single isomer, unassigned; peak 2) [peak 2, epi (4β → 6) epi (4β → 8) cat] | exhibited stronger LOX-1 inhibiting activities than the trimeric procyanidins represented by peaks 1 and 4
